The record followed here is patent publication US20220017484A1, “INHIBITOR OF BRUTON TYROSINE KINASE” (BEIJING RECIPROCAPHARMACEUTICALS CO., LTD., priority 2018, published 2022).

For one experiment, the system named is OCI-LY7 cells. The experiment in a line: Cell viability assay (CellTiter-Glo, 72 h). The class given is cell-based. The conditions noted are these: Homo sapiens, read-out: Results from inhibition of OCI-LY7 cells (IC50). As for the experimental part: An in vitro cell viability assay was conducted using the compounds of Examples 1-50 following the steps below:
1. After OCI-LY7 cells were recovered, they were cultured at 37° C., 5% CO2, and 95% humidity.
2. For the compounds of Examples 1-50, 8 compound solutions at different concentrations were prepared, respectively. 50 μL of the compound solution at each concentration was added to a 96-well black plate.
3. The cell concentration was adjusted to about 30,000 cells/mL. 100 μL of cell suspension was added to the 96-well plate, and mixed well. The final cell density was about 3,000 cells/well.
4. The 96-well plate was placed at 37° C., 5% CO2, and 95% humidity for 72 h.
5. The cell survival rate was measured by the method of CellTiter-Glo® Luminescent Cell Viability Assay (Promega, Cat #G7572). The fluorescence data were read on a microplate reader (EnVision™, a multi-function microplate detector, PerkinElmer).
6. The obtained fluorescence data were analyzed using GraphPad Prism software. The cell survival rate was calculated for each example compound at each concentration, and the IC50 interval of each example compound was obtained.
A general note: ATP-based viability assays read luminescence as a measure of living cells.

The target in experiment [1] is T1, Btk (Homo sapiens, UniProt Q06187). As to the kind of experiment: Covalent inhibition assay on BTK (fluorescent probe labeling, SDS-PAGE scanning). The class given is binding. On the set-up: purchased carna 08-180. The conditions noted are these: for binding mode to recombinant BTK: 0.5 μM and 5 μM, 1 h incubation; for inhibition of the labeling of BTK by the fluorescent probe: 1 h incubation with BTK, then probe 1 h, 1% DMSO control. As for the experimental part:
FIG. 1 is a graph showing the scanning results from SDS-PAGE electrophoresis after the compounds of Examples 23 and 26 at two concentrations (0.5 μM and 5 μM) were incubated with BTK for 1 h, and then a probe prepared according to Sci. Rep. 2015, 5, 16136 was added and incubated for 1 h.
This assay was carried out using the compounds of Examples 23 and 26. The reagents used are as follows:
BTK kinase: brand name: carna, product number: 08-180, concentration: […];
BTK enzyme activity buffer: 1× kinase buffer+1 mM DTT+5 mM MgCl2+50 nM SEB;
BTK probe (100 μM): prepared according to Sci. Rep. 2015, 5, 16136 (Pan Zhengying, et al.);
The compounds of Examples 23 and 26: prepared as described above, and prepared at two concentrations (0.5 μM/5 μM) respectively.
The steps of the assay are as follows:
1. The sample order was 1% DMSO, 0.5 μM compound of Example 23, 5 μM compound of Example 23, 0.5 μM compound of Example 26, and 5 μM compound of Example 26. The compounds, BTK, probe and 2× loading buffer were added to 5 200 μl EP tubes using a pipette.
2. The final concentrations of the compounds of Examples 23 and 26 were 0.5 μM and 5 μM, and the control group was 1% DMSO. The compounds were first prepared with DMSO to 100× the above final concentrations, and diluted ×40 with BTK enzyme activity Buffer. For the reaction, 4 μl/well of the compound was added to the 10 μl system using a pipette to reach its final concentration. For 1% DMSO, the stock solution was diluted ×40 with BTK enzyme activity Buffer.
3. The BTK (200 ng/μl) was diluted to 10 ng/μl, and the probe (100 μM) was diluted to 2.5 μM. They were placed on ice for later use, and the probe was protected from light.
4. To each tube was added 4 μl of BTK, followed by 4 μl of the Example compound. After 1 h incubation, the probe was added, and then incubated for 1 h in the dark.
5. 2× loading buffer was prepared. After the probe was incubated, 10 μl of the 2× loading buffer was added to each well, mixed well, and heated at 100° C. for 10 min to prepare the sample.
6. 10 μl (containing 20 ng of BTK, and 0.5 μM probe) was loaded. Scanning was performed after SDS-PAGE. The order of samples was the order of spotting.
If it is a compound that reversibly binds to BTK, the probe would bind to the released BTK during 1 h incubation with a mixture of the compound and BTK, leading to a fluorescent band.

Experiment [2] addresses T1, Btk. The experiment in a line: Analysis of in vitro inhibitory activity of Btk (cell-free TR-FRET kinase assay). The class given is biochemical. The conditions noted are these: for pIC50: cell-free TR-FRET, ATP at Km, 1 h, read-out: Efficacy (Btk IC50); for inhibitory effects against Btk (in words): summary of Table 1 efficacy data. As for the experimental part:
In a cell-free kinase assay, the method described below or a similar method was used to determine the half inhibitory concentration (IC50) of the compound of the present invention on Btk.
Btk kinase activity was determined using a time-resolved fluorescence resonance energy transfer (TR-FRET) methodology. Measurements were performed in a reaction volume of 50 μL using 96-well assay plates. […] The reaction was quenched by the addition of 1.2 equivalents of EDTA (relative to divalent cation) in […] of 1× Lance buffer (Perkin-Elmer). Streptavidin-APC (Perkin-Elmer) and Eu-labeled p-Tyr100 antibody (Perkin-Elmer) in 1× Lance buffer were added in a volume of 25 μL to give final concentrations of 100 nM and 2.5 nM, respectively. The mixture was allowed to incubate for 1 h. The TR-FRET signal was measured on a multimode plate reader at an excitation wavelength (λEx) of 330 nm and detection wavelengths (λEm) of 615 and 665 nm. The activity was determined by the ratio of fluorescence at 665 nm to that at 615 nm. For each compound, the enzyme activity was measured in the presence of different concentrations of the compound. Negative control reactions were performed in the absence of inhibitor in replicates of six, and two no-enzyme controls were used to determine baseline fluorescence levels. IC50 was obtained by fitting using the program Batch Ki (Kuzmic, et al. (2000), Anal. Biochem. 286:45-50).
The Example compounds 1-50 of the present invention were synthesized according to the above Synthetic Schemes I to VII. In the analysis of in vitro inhibitory activity of Btk, the IC50 values of the Example compounds 1-50 of the present invention were determined. The IC50 values are given according to the interval of the IC50 value, where “+++” means IC50<100 nM; “++” means 100 nM≤IC50<1000 nM; and “+” means 1000 nM≤IC50<10000 nM.

pIC50: −log10 of the molar value.

T1 sequence (Q06187 whole entry): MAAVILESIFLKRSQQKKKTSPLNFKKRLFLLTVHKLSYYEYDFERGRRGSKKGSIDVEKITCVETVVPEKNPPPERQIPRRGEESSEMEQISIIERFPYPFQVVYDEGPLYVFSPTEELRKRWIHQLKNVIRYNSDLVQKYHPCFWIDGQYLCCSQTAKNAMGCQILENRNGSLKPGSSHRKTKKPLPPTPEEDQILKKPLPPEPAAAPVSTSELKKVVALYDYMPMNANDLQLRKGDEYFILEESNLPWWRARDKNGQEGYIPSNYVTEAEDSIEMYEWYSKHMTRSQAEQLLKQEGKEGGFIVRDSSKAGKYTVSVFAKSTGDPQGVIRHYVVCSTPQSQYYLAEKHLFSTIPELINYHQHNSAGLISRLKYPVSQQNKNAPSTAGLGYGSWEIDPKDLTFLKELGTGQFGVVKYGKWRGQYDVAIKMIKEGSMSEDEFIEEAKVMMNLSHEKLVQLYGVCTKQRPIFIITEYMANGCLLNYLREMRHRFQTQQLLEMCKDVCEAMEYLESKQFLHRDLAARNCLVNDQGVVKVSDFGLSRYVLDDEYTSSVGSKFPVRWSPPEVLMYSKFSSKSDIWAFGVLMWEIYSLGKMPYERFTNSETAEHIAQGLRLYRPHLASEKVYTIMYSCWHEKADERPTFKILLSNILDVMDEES

As a reminder, the pIC50 is the negative decadic logarithm of the IC50, by convention in mol/L. On to `C=CC(=O)N(CC)c1cccc(Nc2ncc3cc(-c4c(C)cc[nH]c4=O)ccc3n2)c1` [Example 26], for which the negative-log IC50 (pIC50) in the experiment with OCI-LY7 cells is > 6.30; on Btk [2], > 7.00. Moreover, the “binding mode to recombinant BTK” value at Btk [1] is listed as “irreversibly covalently binds”. Moreover, the “inhibition of the labeling of BTK by the fluorescent probe” value at Btk [1] (compound 0.5 μM) and at Btk [1] (compound 5 μM) was “completely inhibit” each time. Moreover, at Btk [2], the “inhibitory effects against Btk (in words)” value (from here on “inhibitory effects”) is given as “particularly excellent inhibitory effects”.

With `C=CC(=O)NCC(=O)Nc1cccc(Nc2ncc3cc(-c4c(C)cc[nH]c4=O)ccc3n2)c1` [Example 10], the pIC50 in the experiment with OCI-LY7 cells is > 6.30; on Btk [2], > 7.00.

On to `C/C=C/C(=O)Nc1cccc(Nc2ncc3cc(-c4c(C)cc[nH]c4=O)ccc3n2)c1` [Example 4], for which the values for the pIC50 in the experiment with OCI-LY7 cells and on Btk [2] were > 6.30 and > 7.00, respectively.

Regarding `[2H]C([2H])=C([2H])C(=O)N(CCOC)c1cccc(Nc2ncc3cc(-c4c(C)cc[nH]c4=O)ccc3n2)c1` [Example 50], the pIC50 in the experiment with OCI-LY7 cells is > 6.30; at Btk [2] it was > 7.00. For the same compound, on Btk [2], the “inhibitory effects” value is on record as “particularly excellent inhibitory effects”.

In the case of `Cc1cc[nH]c(=O)c1-c1ccc2nc(Nc3ccc4c(c3)NCCO4)ncc2c1` [Example 41], the pIC50 in the experiment on OCI-LY7 cells was > 6.30; at Btk [2], > 7.00.

Take `C=CC(=O)N(C)c1cccc(Nc2ncc3cc(-c4c(C)cc[nH]c4=O)ccc3n2)c1` [Example 23]: the pIC50 in the experiment with OCI-LY7 cells was > 6.30; at Btk [2] it was > 7.00. For the same compound, the “binding mode to recombinant BTK” value on Btk [1] is on record as “irreversibly covalently binds”. The “inhibition of the labeling of BTK by the fluorescent probe” value at Btk [1] (compound 0.5 μM) and on Btk [1] (compound 5 μM) was “completely inhibit” in each case. Also, the “inhibitory effects” value against Btk [2] is on record as “particularly excellent inhibitory effects”.

As to `[2H]C([2H])=C([2H])C(=O)N(CC)c1cccc(Nc2ncc3cc(-c4c(C)cc[nH]c4=O)ccc3n2)c1` [Example 48], the pIC50 with OCI-LY7 cells is > 6.30; at Btk [2], > 7.00.

As to `C=CC(=O)N(CC)c1cc(Nc2ncc3cc(-c4c(C)cc[nH]c4=O)ccc3n2)ccc1OC` [Example 37], the pIC50 in the experiment with OCI-LY7 cells is > 6.30. At Btk [2], the pIC50 is > 7.00 and the “inhibitory effects” value is “particularly excellent inhibitory effects”.

In the case of `C=CC(=O)N(CC)c1cccc(Nc2ncc3cc(-c4c(C)ccn(C(=O)N(C)C)c4=O)ccc3n2)c1` [Example 30], the negative-log IC50 (pIC50) is ≤ 5.60 in the experiment with OCI-LY7 cells and 6.00 to 7.00 at Btk [2].

As to `C=CC(=O)N(CC)c1cccc(Nc2ncc3cc(-c4c(C)ccn(-c5ncco5)c4=O)ccc3n2)c1` [Example 32], the pIC50 was 5.60 to 6.30 with OCI-LY7 cells and 6.00 to 7.00 on Btk [2].

Consider `[2H]C([2H])=C([2H])C(=O)N(c1cccc(Nc2ncc3cc(-c4c(C)cc[nH]c4=O)ccc3n2)c1)C([2H])([2H])C([2H])([2H])[2H]` [Example 49], for which the negative logarithm of the IC50 (pIC50) is > 6.30 with OCI-LY7 cells and > 7.00 at Btk [2].

`CC#CC(=O)N(CC)c1cccc(Nc2ncc3cc(-c4c(C)cc[nH]c4=O)ccc3n2)c1` [Example 33]: the negative-log IC50 (pIC50) was > 6.30 with OCI-LY7 cells and > 7.00 at Btk [2]. The “inhibitory effects” value against Btk [2] was “particularly excellent inhibitory effects”.
